In brackets after ≈: the same amount, converted by molar mass.
Legend:
[1] = test system: peripheral blood mononuclear cells (PBMC); experiment: MTT cell viability, PBMC (normal cell control); type: cell-based; conditions: PBMC, MTT test, 72 h of treatment (Figure 3), read-out: IC50 Value ± SD, PBMC
Protocol: This approach determines cell viability based on the ability of living cells to decrease MTT to a purple, water-insoluble formazan product. Cells were planted in 96-well plates at a density of 1 × 10^4 cells per well in 100 μL of complete culture media, which provides all necessary nutrients for cell growth. […] The cells were then treated with the compounds for 24, 48, and 72 h to determine the effect on cell viability over varied time intervals. Following each incubation time, 20 μL of MTT solution (at a concentration of 5 mg/mL in PBS) were applied to each well. The plates were further incubated for 4 h at 37 °C, during which time live cells decrease the MTT to formazan, creating purple crystals. At the end of the incubation, the medium containing the MTT was carefully aspirated, leaving only the formazan crystals in the bottom of the wells. To dissolve these crystals, 100 μL of DMSO were administered to each well. […] This formula quantifies the reduction in cell viability in response to the treatments compared to the control. […] Cisplatin, a known anticancer drug, was used as a reference drug at varying concentrations from 0.01 to 50 µg/mL.

COX-1 = target: T1, COX-1 (Ovis aries, UniProt P05979); experiment: COX-1-catalyzed prostaglandin production inhibition; type: biochemical, ram; conditions: mean ± standard deviation, three replicas; read-out: COX-1 inhibition IC50 (converted)
T1 construct: The COX-1 enzyme was produced from ram seminal vesicles; purchased Cayman Chemical Company, Ann Arbor, MI, USA; host or cells: ram seminal vesicles (tissue)
T1 sequence (P05979 25-600): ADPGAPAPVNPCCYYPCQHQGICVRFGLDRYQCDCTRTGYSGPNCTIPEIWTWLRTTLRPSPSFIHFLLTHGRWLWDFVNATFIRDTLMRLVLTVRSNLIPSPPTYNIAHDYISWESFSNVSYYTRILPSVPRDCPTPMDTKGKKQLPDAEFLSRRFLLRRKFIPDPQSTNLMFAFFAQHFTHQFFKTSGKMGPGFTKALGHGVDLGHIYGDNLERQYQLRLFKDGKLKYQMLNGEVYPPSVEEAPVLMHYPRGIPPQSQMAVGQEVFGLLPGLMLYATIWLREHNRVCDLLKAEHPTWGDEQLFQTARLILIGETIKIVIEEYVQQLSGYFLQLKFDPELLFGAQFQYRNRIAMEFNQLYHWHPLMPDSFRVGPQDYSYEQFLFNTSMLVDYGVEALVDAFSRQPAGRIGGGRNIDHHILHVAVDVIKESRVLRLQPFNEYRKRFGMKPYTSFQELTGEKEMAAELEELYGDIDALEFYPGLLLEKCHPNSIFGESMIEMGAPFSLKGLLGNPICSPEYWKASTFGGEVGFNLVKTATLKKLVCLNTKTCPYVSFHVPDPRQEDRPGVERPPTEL
Protocol: (§1) The COX inhibitory effects of the substances were examined using a COX-1/COX-2-catalyzed prostaglandin production test, using a modified approach by Futaki et al.. The chemicals were dissolved in 4% DMSO to a final concentration of 100 µg/mL.
(§2) In this test, one unit of COX-1 or COX-2 enzyme was suspended in a 0.1 M Tris-HCl buffer (pH 7.5) containing hematin ([…]) and phenol (2 mM) as cofactors. The COX-1 enzyme was produced from ram seminal vesicles, while COX-2 was taken from sheep placenta with a purity of 70% (both from Cayman Chemical Company, Ann Arbor, MI, USA). The reaction mixture was preincubated with either the solvent vehicle (4% DMSO) or the test solution for 2 min at 37 °C. […] Arachidonic acid, tagged with radioactive carbon ([1–14C]), serves as a substrate for the COX enzymes. The mixture was then incubated for an additional 2 min at 37 °C. […] The organic solvent phase was removed, and the PGE2 level in the remaining aqueous phase was quantified using a radioimmunoassay with a liquid scintillation counter, which measures the radioactivity (disintegrations per minute, DPM) of the [1–14C]-labeled PGE2. The percentage inhibition of COX-catalyzed prostaglandin production by the test compounds was estimated by comparing the radioactivity of the samples with the solvent vehicle controls. […]

COX-2 = target: T2, COX-2 (Ovis aries, UniProt P79208); experiment: COX-2-catalyzed prostaglandin production inhibition; type: biochemical, sheep; conditions: mean ± standard deviation, three replicas
T2 construct: purchased Cayman Chemical Company, Ann Arbor, MI, USA; host or cells: sheep placenta (tissue)
T2 sequence (P79208 17-603): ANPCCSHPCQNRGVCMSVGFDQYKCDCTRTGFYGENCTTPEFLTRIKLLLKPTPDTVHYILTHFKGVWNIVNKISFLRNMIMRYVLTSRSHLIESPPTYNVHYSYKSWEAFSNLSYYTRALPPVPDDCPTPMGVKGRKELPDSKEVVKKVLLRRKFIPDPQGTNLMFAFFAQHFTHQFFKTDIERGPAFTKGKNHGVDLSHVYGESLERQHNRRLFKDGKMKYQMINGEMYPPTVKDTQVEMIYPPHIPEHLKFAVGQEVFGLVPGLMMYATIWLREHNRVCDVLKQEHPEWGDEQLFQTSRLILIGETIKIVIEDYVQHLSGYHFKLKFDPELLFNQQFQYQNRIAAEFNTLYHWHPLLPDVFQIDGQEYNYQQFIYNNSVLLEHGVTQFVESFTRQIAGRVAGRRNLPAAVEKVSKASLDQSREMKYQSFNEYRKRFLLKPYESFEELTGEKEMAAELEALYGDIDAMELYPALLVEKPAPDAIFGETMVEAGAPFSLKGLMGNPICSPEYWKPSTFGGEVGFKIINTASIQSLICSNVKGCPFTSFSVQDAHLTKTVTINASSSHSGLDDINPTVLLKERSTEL
Protocol: as §1, §2

`Cc1ccc(C(C)C)c(O)c1` [Thymol, 2-isopropyl-5-methylphenol] gave an IC50 [1] of 307 ± 3.48 µg/mL (≈ 2050 µM), an IC50 (COX-1) of 198 µM and an IC50 (COX-2) of 177 µM.
